Experimental data reported in patent publication US20110015235A1, “NOVEL PHENYLETHYNYL DERIVATIVES OF 8-AZA-BICYCLO[3.2.1]OCTANE AND THEIR USE AS MONOAMINE NEUROT[…]-UPTAKE INHIBITORS” (NeuroSearch A/S, priority 2008, published 2011).
pIC50: −log10 of the molar value. Structures can show the parent of a compound that is named as a salt.

Tests used:
Format in all cases: biochemical
[1] = system: serotonine (5-HT) reuptake in synaptosomes; assay: Inhibition of 3H-5-HT reuptake in synaptosomes; settings: read-out: 5-HT-uptake IC50
Protocol: (§1) Compounds were tested for their ability to inhibit the reuptake of the monoamine neurotransmitters dopamine (DA) noradrenaline (NA) and serotonine (5-HT) in synaptosomes as described in WO 97/16451 (NeuroSearch A/S).
(§2) The test values are given as IC50 (the concentration (μM) of the test substance which inhibits the specific binding of ^3H-DA, ^3H-NA, or ^3H-5-HT by 50%).

[2] = system: noradrenaline (NA) reuptake in synaptosomes; assay: Inhibition of 3H-NA reuptake in synaptosomes; settings: read-out: NA-uptake IC50
Protocol: as §1, §2

[3] = system: dopamine (DA) reuptake in synaptosomes; assay: Inhibition of 3H-DA reuptake in synaptosomes; settings: read-out: DA-uptake IC50
Protocol: as §1, §2

CN1[C@@H]2CC[C@H]1C[C@H](Oc1ccc(C#Cc3ccccc3)cc1)C2 [Compound C1, exo-8-Methyl-3-(4-phenylethynyl-phenoxy)-8-aza-bicyclo[3.2.1]octane fumaric acid salt] was tested, and the pIC50 [1] was 6.14, the pIC50 [2] was 7.10 and the pIC50 [3] was 7.62.
